Biological target: T1, SIRT1 (Homo sapiens, UniProt Q96EB6)
T1 sequence (Q96EB6 1-747): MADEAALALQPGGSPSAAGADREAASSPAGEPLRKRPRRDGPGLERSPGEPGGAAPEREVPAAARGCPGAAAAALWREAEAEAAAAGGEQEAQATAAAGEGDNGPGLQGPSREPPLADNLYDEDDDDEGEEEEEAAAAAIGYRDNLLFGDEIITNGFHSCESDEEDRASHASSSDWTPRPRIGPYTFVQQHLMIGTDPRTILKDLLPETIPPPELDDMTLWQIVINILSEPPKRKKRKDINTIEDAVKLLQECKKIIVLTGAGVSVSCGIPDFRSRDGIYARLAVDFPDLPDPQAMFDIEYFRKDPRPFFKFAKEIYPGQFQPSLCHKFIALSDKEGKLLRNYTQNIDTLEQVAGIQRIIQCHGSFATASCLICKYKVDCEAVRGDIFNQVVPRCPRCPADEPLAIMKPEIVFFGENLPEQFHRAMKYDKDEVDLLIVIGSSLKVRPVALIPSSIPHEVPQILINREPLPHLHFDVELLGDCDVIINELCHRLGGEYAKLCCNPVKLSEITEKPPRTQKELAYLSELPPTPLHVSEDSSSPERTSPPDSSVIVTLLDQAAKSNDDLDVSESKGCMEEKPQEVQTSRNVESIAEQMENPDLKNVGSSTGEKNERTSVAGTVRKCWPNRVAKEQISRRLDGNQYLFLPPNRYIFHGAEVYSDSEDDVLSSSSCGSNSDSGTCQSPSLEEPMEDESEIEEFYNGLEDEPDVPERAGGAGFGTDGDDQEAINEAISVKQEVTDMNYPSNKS
Test: Trp mass spectrometry assay (SIRT1 activation)
Format: biochemical
Details: Trp mass spectrometry assay; for Tryp AVG EC1.5 (μM): EC1.5 = concentration of test compound that results in 150% activation of SIRT1; for Emax: percent maximum fold activation of SIRT1, read-out: Tryp % Fold Act
In short: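 N-His-tagged SIRT1 (10 nM), expressed in E. coli, was incubated with 0.5 μM Ac-RHKK(Ac)W-NH2 peptide and 120 μM NAD+ for 25 min at 25 °C in HEPES pH 7.5 with […]. The reaction was stopped with formic acid and O-acetyl-ADP-ribose or deacetylated peptide was quantified by mass spectrometry. Results are given as EC1.5 and percent maximal activation relative to DMSO control.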

Tryp AVG EC1.5 (μM) | Emax [%] | Compound
B (EC1.5 1-25 μM) | ≥ 150 | O=C(Nc1ccncc1F)N1c2nc(C3CCCC(C(F)(F)F)C3)ccc2N2CC[C@H]1C2 (stereo partly shown) [Example 148]
B (EC1.5 1-25 μM) | ≥ 150 | Cc1nc(NC(=O)N2c3nc(C4CCCC(C(F)(F)F)C4)ccc3N3CC[C@H]2C3)sc1C (stereo partly shown) [Example 149]
A (EC1.5<1 μM) | ≥ 150 | O=C(Nc1ccncc1F)N1c2nc(-c3cccc(N4CCCC4)c3)ccc2N2CC[C@H]1C2 [Example 150]
A (EC1.5<1 μM) | ≥ 150 | O=C(Nc1ccncc1F)N1c2nc(-c3ccnc(C(F)(F)F)c3)ccc2N2CC[C@H]1C2 [Example 151]
C (EC1.5>25 μM) | ≥ 150 | O=C(Nc1ccncc1F)N1c2nc(-c3ccccc3C(F)(F)F)ccc2N2CC[C@H]1C2 [Example 152]
A (EC1.5<1 μM) | ≥ 150 | O=C(Nc1ccncc1F)N1c2nc(-c3cccc(OC(F)(F)F)c3)ccc2N2CC[C@H]1C2 [Example 153]
B (EC1.5 1-25 μM) | ≥ 150 | O=C(Nc1ccnc(F)c1)N1c2nc(C3CCCC(C(F)(F)F)C3)ccc2N2CC[C@H]1C2 (stereo partly shown) [Example 154]
B (EC1.5 1-25 μM) | ≥ 150 | O=C(Nc1ccccn1)N1c2nc(-c3cccc(OC[C@@H](O)CO)c3)ccc2N2CC[C@H]1C2 [Example 155]
A (EC1.5<1 μM) | ≥ 150 | COc1cc(NC(=O)N2c3nc(-c4cccc(OC[C@@H](O)CO)c4)ccc3N3CC[C@H]2C3)ncn1 [Example 156]
B (EC1.5 1-25 μM) | ≥ 150 | O=C(Nc1ccncc1F)N1c2nc(-c3cccc(OC[C@@H](O)CO)c3)ccc2N2CC[C@H]1C2 [Example 157]
B (EC1.5 1-25 μM) | ≥ 150 | O=C(Nc1ccccn1)N1c2nc(-c3cccc(C(F)(F)F)c3)ccc2N2CCC1CC2 [Example 158]
A (EC1.5<1 μM) | ≥ 150 | COc1cc(-c2cccc(C(F)(F)F)c2)nc2c1N1CC[C@@H](C1)N2C(=O)Nc1ccccn1 [Example 159]
A (EC1.5<1 μM) | ≥ 150 | COc1cc(-c2cccc(C(F)(F)F)c2)nc2c1N1CC[C@@H](C1)N2C(=O)Nc1ccncc1 [Example 160]
A (EC1.5<1 μM) | ≥ 150 | COc1cc(-c2cccc(C(F)(F)F)c2)nc2c1N1CC[C@@H](C1)N2C(=O)Nc1nc(C)c(C)s1 [Example 161]
A (EC1.5<1 μM) | ≥ 150 | O=C(Nc1cccc(-c2cnco2)c1)N1c2nc(-c3cccc(OC(F)(F)F)c3)ccc2N2CC[C@H]1C2 [Example 162]
A (EC1.5<1 μM) | ≥ 150 | O=C(Nc1cccnc1)N1c2nc(-c3cccc(OC(F)(F)F)c3)ccc2N2CC[C@H]1C2 [Example 163]
A (EC1.5<1 μM) | ≥ 150 | O=C(Nc1cnccn1)N1c2nc(-c3cccc(OC(F)(F)F)c3)ccc2N2CC[C@H]1C2 [Example 164]
A (EC1.5<1 μM) | ≥ 150 | Cc1nc(NC(=O)N2c3nc(-c4cccc(OC(F)(F)F)c4)ccc3N3CC[C@H]2C3)sc1C [Example 165]
A (EC1.5<1 μM) | ≥ 150 | O=C(Nc1ccncn1)N1c2nc(-c3cccc(OC(F)(F)F)c3)ccc2N2CC[C@H]1C2 [Example 166]
B (EC1.5 1-25 μM) | ≥ 150 | Cn1cc(NC(=O)N2c3nc(-c4cccc(OC(F)(F)F)c4)ccc3N3CC[C@H]2C3)cn1 [Example 167]
A (EC1.5<1 μM) | ≥ 150 | COc1cc(NC(=O)N2c3nc(-c4cccc(C(F)(F)F)c4)ccc3N3CCC2CC3)ncn1 [Example 168]
B (EC1.5 1-25 μM) | ≥ 150 | COc1nccc(NC(=O)N2c3nc(-c4cccc(C(F)(F)F)c4)ccc3N3CCC2CC3)n1 [Example 169]
A (EC1.5<1 μM) | ≥ 150 | COc1cc(NC(=O)N2c3nc(-c4cccc(C(F)(F)F)c4)ccc3N3CCC2CC3)nc(OC)n1 [Example 170]

From patent US9765075B2, “Substituted bridged urea analogs as sirtuin modulators” (GLAXOSMITHKLINE LLC, priority 2013, dated 2017)
